Experiments:
Experiment in all cases: relative viability (nuclei count vs DMSO), 5 days (fraction); higher = more cells survive
Bleomycin + Crizotinib = compound: CC1=C(N=C(N=C1N)[C@H](CC(=O)N)NC[C@@H](C(=O)N)N)C(=O)N[C@@H]([C@H](C2=CN=CN2)OC3C(C(C(C(O3)CO)O)O)OC4C(C(C(C(O4)CO)O)OC(=O)N)O)C(=O)N[C@H](C)[C@H]([C@H](C)C(=O)N[C@@H]([C@@H](C)O)C(=O)NCCC5=NC(=CS5)C6=NC(=CS6)C(=O)NCCC[S+](C)C)O [Bleomycin] + C[C@@H](Oc1cc(-c2cnn(C3CCNCC3)c2)cnc1N)c1c(Cl)ccc(F)c1Cl [Crizotinib] (partner 1 µM); settings: main component drawn
Method in brief: (§1)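 Relative viability is defined as nuclei in treated wells over nuclei in vehicle wells. Duplicate plates were run and medians reported. Lung cancer cell lines in 1536-well plates were dosed by pin tool one day after seeding, with one drug or with a fixed anchor-drug dose plus five library-drug doses (not always all listed) in √10 steps, and nuclei were counted after 5 days.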

Etoposide + Luminespib = compound: COc1cc([C@@H]2c3cc4c(cc3[C@@H](O[C@@H]3O[C@@H]5CO[C@@H](C)O[C@H]5[C@H](O)[C@H]3O)[C@H]3COC(=O)[C@H]23)OCO4)cc(OC)c1O [Etoposide] + CCNC(=O)c1noc(-c2cc(C(C)C)c(O)cc2O)c1-c1ccc(CN2CCOCC2)cc1 [Luminespib] (partner 0.01 µM)
Method in brief: as §1

Etoposide + Navitoclax = compound: COc1cc([C@@H]2c3cc4c(cc3[C@@H](O[C@@H]3O[C@@H]5CO[C@@H](C)O[C@H]5[C@H](O)[C@H]3O)[C@H]3COC(=O)[C@H]23)OCO4)cc(OC)c1O [Etoposide] + CC1(C)CCC(c2ccc(Cl)cc2)=C(CN2CCN(c3ccc(C(=O)NS(=O)(=O)c4ccc(N[C@H](CCN5CCOCC5)CSc5ccccc5)c(S(=O)(=O)C(F)(F)F)c4)cc3)CC2)C1 [Navitoclax] (partner 0.5 µM)
Method in brief: as §1

Etoposide + Dasatinib = compound: COc1cc([C@@H]2c3cc4c(cc3[C@@H](O[C@@H]3O[C@@H]5CO[C@@H](C)O[C@H]5[C@H](O)[C@H]3O)[C@H]3COC(=O)[C@H]23)OCO4)cc(OC)c1O [Etoposide] + Cc1nc(Nc2ncc(C(=O)Nc3c(C)cccc3Cl)s2)cc(N2CCN(CCO)CC2)n1 [Dasatinib] (partner 0.075 µM)
Method in brief: as §1

Cell Line	relative viability (Bleomycin + Crizotinib; first compound 0.01 µM)	relative viability (Bleomycin + Crizotinib; first compound 0.03162 µM)	relative viability (Bleomycin + Crizotinib; first compound 0.1 µM)	relative viability (Bleomycin + Crizotinib; first compound 0.3162 µM)	relative viability (Bleomycin + Crizotinib; first compound 1 µM)	relative viability (Etoposide + Luminespib; first compound 0.01 µM)	relative viability (Etoposide + Luminespib; first compound 0.03162 µM)	relative viability (Etoposide + Luminespib; first compound 0.1 µM)	relative viability (Etoposide + Luminespib; first compound 0.3162 µM)	relative viability (Etoposide + Luminespib; first compound 1 µM)	relative viability (Etoposide + Navitoclax; first compound 0.01 µM)	relative viability (Etoposide + Navitoclax; first compound 0.03162 µM)	relative viability (Etoposide + Navitoclax; first compound 0.1 µM)	relative viability (Etoposide + Navitoclax; first compound 0.3162 µM)	relative viability (Etoposide + Navitoclax; first compound 1 µM)	relative viability (Etoposide + Dasatinib; first compound 0.01 µM)	relative viability (Etoposide + Dasatinib; first compound 0.03162 µM)	relative viability (Etoposide + Dasatinib; first compound 0.1 µM)	relative viability (Etoposide + Dasatinib; first compound 0.3162 µM)	relative viability (Etoposide + Dasatinib; first compound 1 µM)
NCI-H1437	0.803	0.811	0.736	0.476	0.382	1.1	1.07	1.14	0.7	0.509	1.11	1.01	1.01	0.524	0.296	0.585	0.443	0.283	0.29	0.165
NCI-H1650	0.397	0.311	0.258	0.16	0.172	0.204	0.175	0.202	0.209	0.211	1.25	1.19	0.885	0.353	0.309	0.302	0.381	0.315	0.211	0.127
NCI-H1651	0.787	0.772	0.754	0.448	0.358	0.815	0.724	0.681	0.308	0.209	0.866	0.881	0.808	0.242	0.154	0.282	0.426	0.385	0.189	0.0972
NCI-H1666	0.717	0.57	0.469	0.339	0.325	0.949	0.906	0.77	0.399	0.406	0.788	0.875	0.549	0.353	0.263	0.796	0.802	0.594	0.361	0.293
NCI-H1734	0.581	0.545	0.554	0.219	0.198	0.226	0.192	0.182	0.185	0.168	0.761	0.9	0.665	0.598	0.266	0.415	0.449	0.312	0.436	0.21
NCI-H1755	0.771	0.841	0.827	0.593	0.567	0.481	0.415	0.45	0.483	0.277	0.917	1.03	1.07	0.939	0.882	0.433	0.452	0.469	0.413	0.394
NCI-H1792	0.886	0.971	0.675	0.312	0.258	0.317	0.472	0.205	0.215	0.248	0.716	0.59	0.507	0.567	0.394	0.699	0.695	0.658	0.72	0.549
NCI-H1915	0.661	0.665	0.45	0.337	0.183	0.714	0.634	0.808	0.617	0.394	0.826	0.814	0.815	0.725	0.621	0.31	0.413	0.236	0.326	0.286
NCI-H1944	0.544	0.565	0.432	0.237	0.186	0.519	0.936	0.597	0.404	0.247	1.11	1	0.63	0.593	0.3	0.213	0.23	0.159	0.189	0.102
NCI-H1975	0.774	0.693	0.662	0.319	0.241	0.34	0.199	0.125	0.242	0.199	1.09	1.33	1.06	0.701	0.468	0.336	0.426	0.32	0.348	0.214
NCI-H1993	0.629	0.712	0.693	0.678	0.527	0.827	0.726	0.757	0.73	0.48	0.921	1.08	0.856	0.758	0.533	0.619	0.712	0.478	0.546	0.376
NCI-H2009	0.976	1.07	0.991	0.603	0.459	1.03	0.961	1	0.644	0.476	1.13	1.08	1.21	0.771	0.496	0.288	0.313	0.218	0.282	0.207
NCI-H2023	0.473	0.447	0.346	0.131	0.104	0.709	0.829	0.708	0.195	0.112	0.99	0.964	0.929	0.423	0.347	0.492	0.554	0.378	0.326	0.125
NCI-H2085	0.608	0.723	0.671	0.372	0.404	0.34	0.514	0.451	0.338	0.265	1.16	1.06	1.11	0.67	0.354	0.219	0.241	0.226	0.23	0.197

Reference: the supplement of paper PMC10307832
